The results in this text go back to patent publication US20230072683A1, “PYRIDO-PYRIMIDIN DERIVATIVES AND PHARMACEUTICAL COMPOSITION, FOR USE IN PREVENTING OR TREATING PI3 KINASE RELATED DISEASES, COMPRISING SAME AS ACTIVE INGREDIENT” (BORYUNG PHARMACEUTICAL CO., LTD, priority 2019, published 2023).

Each structure is given as a SMILES string. Read-outs that look alike come from different tables or passages of the source.

Test [1] concerns the target PI3K-δ (PI3K(p1108/p857) (h)) (Homo sapiens, UniProt O00329). Put plainly: Evaluation of inhibitory activity against PI3K-δ (HTRF kinase assay). The test is classed as biochemical. The settings on record: for inhibition at 0.01 µM: compound concentration 0.01 μM, read-out: EXP_VALUE(% Inhibition) PI3K-δ 0.01 μM; for inhibition at 0.1 µM: read-out: EXP_VALUE(% Inhibition) PI3K-δ 0.1 μM. The essentials:
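HTRF read-out (665/620 nm ratio ×10000) used Eu-labelled anti-GST, GST-tagged GRP1 PH domain and streptavidin-allophycocyanin after EDTA/PIP3 stop.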
For orientation: Time-resolved FRET reads energy transfer from a long-lived donor to a nearby acceptor.

The target in test [2] is DNA-PK(h) (Homo sapiens, UniProt P78527). As to the kind of experiment: Evaluation of inhibitory activity against DNA-PK (HTRF kinase assay, GST-cMyc-p53 substrate). The test is classed as biochemical. The settings on record: for inhibition at 0.01 µM: compound concentration 0.01 μM, read-out: EXP_VALUE(% Inhibition) DNA-PK(h) 0.01 μM; for inhibition at 0.1 µM: read-out: EXP_VALUE(% Inhibition) DNA-PK(h) 0.1 μM. An outline of the steps:
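p53 Ser15 phosphorylation by human DNA-PK was measured by time-resolved FRET ratio (665/620 nm ×10000) using Eu-labelled anti-phospho-Ser15 and d2 anti-GST antibodies. Substrate GST-cMyc-p53 at 50 μM; Mg/ATP-initiated, 30 min at room temperature, EDTA stop.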

PI3K-δ (PI3K(p1108/p857) (h)), sequence (O00329 whole entry, the tested form may be a part): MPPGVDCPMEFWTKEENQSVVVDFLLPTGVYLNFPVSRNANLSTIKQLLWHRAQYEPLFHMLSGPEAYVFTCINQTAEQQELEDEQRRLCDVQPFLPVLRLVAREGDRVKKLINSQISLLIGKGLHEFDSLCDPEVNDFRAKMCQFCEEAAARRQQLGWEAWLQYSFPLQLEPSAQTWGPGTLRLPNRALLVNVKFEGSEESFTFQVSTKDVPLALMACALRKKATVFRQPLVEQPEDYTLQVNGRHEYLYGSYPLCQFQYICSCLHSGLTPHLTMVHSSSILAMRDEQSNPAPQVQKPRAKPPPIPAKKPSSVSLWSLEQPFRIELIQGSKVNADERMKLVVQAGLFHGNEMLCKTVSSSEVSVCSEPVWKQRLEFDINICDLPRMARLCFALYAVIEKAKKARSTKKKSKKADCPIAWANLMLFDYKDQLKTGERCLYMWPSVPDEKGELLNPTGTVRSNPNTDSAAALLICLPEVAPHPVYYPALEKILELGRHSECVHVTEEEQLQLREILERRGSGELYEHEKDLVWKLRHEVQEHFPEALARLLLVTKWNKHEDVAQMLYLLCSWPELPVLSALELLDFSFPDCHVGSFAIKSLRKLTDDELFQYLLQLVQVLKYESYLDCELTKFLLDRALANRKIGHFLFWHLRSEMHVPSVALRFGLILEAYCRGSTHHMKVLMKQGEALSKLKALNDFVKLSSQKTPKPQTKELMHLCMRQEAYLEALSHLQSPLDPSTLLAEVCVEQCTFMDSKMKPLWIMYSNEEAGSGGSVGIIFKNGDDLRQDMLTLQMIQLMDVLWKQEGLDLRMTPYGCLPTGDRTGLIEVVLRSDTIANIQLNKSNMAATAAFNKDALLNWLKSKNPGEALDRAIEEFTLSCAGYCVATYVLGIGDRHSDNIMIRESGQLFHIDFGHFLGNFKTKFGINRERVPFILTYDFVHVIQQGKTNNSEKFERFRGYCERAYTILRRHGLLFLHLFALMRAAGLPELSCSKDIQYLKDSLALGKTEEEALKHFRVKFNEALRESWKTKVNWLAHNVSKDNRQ
PI3K-δ (PI3K(p1108/p857) (h)), sequence (P27986 whole entry partner, the tested form may be a part): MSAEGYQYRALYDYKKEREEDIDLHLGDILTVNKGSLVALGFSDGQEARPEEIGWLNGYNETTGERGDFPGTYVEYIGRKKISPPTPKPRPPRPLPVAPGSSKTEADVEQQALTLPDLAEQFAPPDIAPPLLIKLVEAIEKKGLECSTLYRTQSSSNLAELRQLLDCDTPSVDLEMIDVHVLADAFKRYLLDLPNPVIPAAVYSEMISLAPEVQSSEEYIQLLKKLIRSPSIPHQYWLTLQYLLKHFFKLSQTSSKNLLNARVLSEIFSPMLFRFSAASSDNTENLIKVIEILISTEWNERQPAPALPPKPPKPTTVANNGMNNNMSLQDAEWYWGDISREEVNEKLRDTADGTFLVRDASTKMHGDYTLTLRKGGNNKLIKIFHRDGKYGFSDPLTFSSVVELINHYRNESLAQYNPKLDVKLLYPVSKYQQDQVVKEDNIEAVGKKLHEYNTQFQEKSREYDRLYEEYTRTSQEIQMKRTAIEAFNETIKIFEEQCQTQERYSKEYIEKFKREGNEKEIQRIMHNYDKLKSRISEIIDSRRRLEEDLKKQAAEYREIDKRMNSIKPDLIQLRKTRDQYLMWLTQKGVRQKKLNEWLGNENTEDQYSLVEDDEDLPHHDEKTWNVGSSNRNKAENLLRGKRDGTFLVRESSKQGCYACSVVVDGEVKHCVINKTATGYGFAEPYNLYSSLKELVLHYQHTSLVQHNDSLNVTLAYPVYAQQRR

`COc1cc(-c2cccc3c(Cl)c([C@H](C)Nc4ncnc5[nH]ccc(=O)c45)n(-c4ccccc4)c(=O)c23)cnc1OC` [Example 170, (S)-4-((1-(4-chloro-8-(5,6-dimethoxypyridin-3-yl)-1-oxo-2-phenyl-1,2-dihydroisoquinolin-3-yl)ethyl)amino)pyrido[2,3-d]pyrimidin-5(8H)-one]: the inhibition (in general, the relative decrease from the control value, in per cent) at 0.01 µM in test [1] came out at 35%; in test [2] it was 66%.

As to `C[C@H](Nc1ncnc2[nH]ccc(=O)c12)c1c(Cl)c2cccc(OCc3ccccc3)c2c(=O)n1-c1ccccc1` [Example 362, (S)-4-((1-(8-(benzyloxy)-4-chloro-1-oxo-2-phenyl-1,2-dihydroisoquinolin-3-yl)ethyl)amino)pyrido[2,3-d]pyrimidin-5(8H)-one], the inhibition at 0.01 µM was 21% in test [1] and 29% in test [2]. In addition, the inhibition at 0.1 µM in test [1] (compound concentration 0.1 μM) is 64%; in test [2] (compound concentration 0.1 μM) it was 67%.

For the compound `C[C@H](Nc1ncnc2[nH]ccc(=O)c12)c1c(Cl)c2cccc(C(=O)NC(C)(C)C)c2c(=O)n1-c1ccccc1` [Example 285, (S)—N-(tert-butyl)-4-chloro-1-oxo-3-(1-((5-oxo-5,8-dihydropyrido[2,3-d]pyrimidin-4-yl)amino)ethyl)-2-phenyl-1,2-dihydroisoquinoline-8-carboxamide], the results for the inhibition at 0.01 µM in test [1] and in test [2] were 22% and 15%, respectively.

For the compound `C[C@H](Nc1ncnc2[nH]ccc(=O)c12)c1c(Cl)c2cccc(-c3cnc(N4CCC4)nc3)c2c(=O)n1-c1ccccc1` [Example 200, (S)-4-((1-(8-(2-(azetidin-1-yl)pyrimidin-5-yl)-4-chloro-1-oxo-2-phenyl-1,2-dihydroisoquinolin-3-yl)ethyl)amino)pyrido[2,3-d]pyrimidin-5(8H)-one], the inhibition at 0.01 µM in test [1] turned out to be 77%; in test [2], 72%.

In the case of `C[C@H](Nc1ncnc2[nH]ccc(=O)c12)c1c(Cl)c2cccc(-c3cccs3)c2c(=O)n1-c1ccccc1` [Example 388, (S)-4-((1-(4-chloro-1-oxo-2-phenyl-8-(thiophen-2-yl)-1,2-dihydroisoquinolin-3-yl)ethyl)amino)pyrido[2,3-d]pyrimidin-5(8H)-one], the inhibition at 0.1 µM in test [1] (compound at 0.1 μM) was 80%; in test [2] (compound at 0.1 μM), 68%.

Consider `C[C@H](Nc1ncnc2[nH]ccc(=O)c12)c1c(Cl)c2cccc(-c3ccc(C#N)cc3)c2c(=O)n1-c1ccccc1` [Example 259, (S)-4-(4-chloro-1-oxo-3-(1-((5-oxo-5,8-dihydropyrido[2,3-d]pyrimidin-4-yl)amino)ethyl)-2-phenyl-1,2-dihydroisoquinolin-8-yl)benzonitrile], for which the inhibition at 0.01 µM came to 108% in test [1] and 50% in test [2]. Besides, the values for the inhibition at 0.1 µM in test [1] (compound concentration 0.1 μM) and in test [2] (compound concentration 0.1 μM) were 116% and 86%, respectively.

`C[C@H](Nc1ncnc2[nH]ccc(=O)c12)c1c(Cl)c2cccc(-c3ccc(C4CCC4)cc3)c2c(=O)n1-c1ccccc1` [Example 118, (S)-4-((1-(4-chloro-8-(4-cyclobutylphenyl)-1-oxo-2-phenyl-1,2-dihydroisoquinolin-3-yl)ethyl)amino)pyrido[2,3-d]pyrimidin-5(8H)-one]: the inhibition at 0.01 µM in test [1] worked out at 29%; in test [2] it was 26%. Besides, the inhibition at 0.1 µM in test [1] (compound concentration 0.1 μM) was determined as 81%; in test [2] (compound concentration 0.1 μM), 74%.

As for `Cc1ccc(-c2cccc3c(Cl)c([C@H](C)Nc4ncnc5[nH]ccc(=O)c45)n(-c4ccccc4)c(=O)c23)o1` [Example 98, (S)-4-((1-(4-chloro-8-(5-methylfuran-2-yl)-1-oxo-2-phenyl-1,2-dihydroisoquinolin-3-yl)ethyl)amino)pyrido[2,3-d]pyrimidin-5(8H)-one], the values for the inhibition at 0.01 µM in test [1] and in test [2] were 66% and 84%, respectively. Also, the inhibition at 0.1 µM in test [1] (compound concentration 0.1 μM) came out at 91%; in test [2] (compound concentration 0.1 μM), 98%.

Regarding `C[C@H](Nc1ncnc2[nH]ccc(=O)c12)c1c(Cl)c2cccc(-c3ccc(C(=O)N(C)C)cc3)c2c(=O)n1-c1ccccc1` [Example 139, (S)-4-(4-chloro-1-oxo-3-(1-((5-oxo-5,8-dihydropyrido[2,3-d]pyrimidin-4-yl)amino)ethyl)-2-phenyl-1,2-dihydroisoquinolin-8-yl)-N, N-dimethylbenzamide], the results for the inhibition at 0.01 µM in test [1] and in test [2] were 51% and 74%, respectively. The inhibition at 0.1 µM came to 94% in test [1] (compound concentration 0.1 μM) and 96% in test [2] (compound concentration 0.1 μM).

For `COc1cc(OC(F)(F)F)cc(-c2cccc3c(Cl)c([C@H](C)Nc4ncnc5[nH]ccc(=O)c45)n(-c4ccccc4)c(=O)c23)c1` [Example 158, (S)-4-((1-(4-chloro-8-(3-methoxy-5-(trifluoromethoxy)phenyl)-1-oxo-2-phenyl-1,2-dihydroisoquinolin-3-yl)ethyl)amino)pyrido[2,3-d]pyrimidin-5(8H)-one], the inhibition at 0.01 µM turned out to be 32% in test [1] and 18% in test [2].

With `CC(=O)Nc1ccc(-c2cccc3c(Cl)c([C@H](C)Nc4ncnc5[nH]ccc(=O)c45)n(-c4ccccc4)c(=O)c23)cn1` [Example 202, (S)—N-(5-(4-chloro-1-oxo-3-(1-((5-oxo-5,8-dihydropyrido[2,3-d]pyrimidin-4-yl)amino)ethyl)-2-phenyl-1,2-dihydroisoquinolin-8-yl)pyridin-2-yl) acetamide], the inhibition at 0.01 µM in test [1] came to 78%; in test [2] it was 70%.

`C[C@H](Nc1ncnc2[nH]ccc(=O)c12)c1c(Cl)c2cccc(C#Cc3nccs3)c2c(=O)n1-c1ccccc1` [Example 312, (S)-4-((1-(4-chloro-1-oxo-2-phenyl-8-(thiazol-2-ylethynyl)-1,2-dihydroisoquinolin-3-yl)ethyl)amino)pyrido[2,3-d]pyrimidin-5(8H)-one]: the values for the inhibition at 0.01 µM in test [1] and in test [2] were 46.8% and 39.8%, respectively. Moreover, the inhibition at 0.1 µM in test [1] (compound concentration 0.1 μM) amounted to 77.1%; in test [2] (compound concentration 0.1 μM), 84.3%.

With `C[C@H](Nc1ncnc2[nH]ccc(=O)c12)c1c(Cl)c2cccc(-c3cnc(N4CCN(C)CC4)nc3)c2c(=O)n1-c1ccccc1` [Example 216, (S)-4-((1-(4-chloro-8-(2-(4-methylpiperazin-1-yl)pyrimidin-5-yl)-1-oxo-2-phenyl-1,2-dihydroisoquinolin-3-yl)ethyl)amino)pyrido[2,3-d]pyrimidin-5(8H)-one], the inhibition at 0.01 µM in test [1] was determined as 96%; in test [2], 75%.

With `C[C@H](Nc1ncnc2[nH]ccc(=O)c12)c1cc2cccc(-c3cnc(C(F)(F)F)nc3)c2c(=O)n1-c1ccccc1` [Example 385, (S)-4-((1-(1-oxo-2-phenyl-8-(2-(trifluoromethyl)pyrimidin-5-yl)-1,2-dihydroisoquinolin-3-yl)ethyl)amino)pyrido[2,3-d]pyrimidin-5(8H)-one], the inhibition at 0.1 µM in test [1] (compound at 0.1 μM) is 75%; in test [2] (compound at 0.1 μM) it was 4%.

With `C[C@H](Nc1ncnc2[nH]ccc(=O)c12)c1c(Cl)c2cccc(-c3ccc(-c4nccs4)cc3)c2c(=O)n1-c1ccccc1` [Example 29, (S)-4-((1-(4-chloro-1-oxo-2-phenyl-8-(4-(thiazol-2-yl)phenyl)-1,2-dihydroisoquinolin-3-yl)ethyl)amino)pyrido[2,3-d]pyrimidin-5(8H)-one], the inhibition at 0.01 µM in test [1] worked out at 70%; in test [2], 99%.
